The text below walks through data of ChEMBL document CHEMBL1201862, “PubChem BioAssay data set” (2004).

Assay [1] has as its target T1, Mannose-6-phosphate isomerase (Homo sapiens, UniProt P34949).
T1 sequence (P34949 whole entry): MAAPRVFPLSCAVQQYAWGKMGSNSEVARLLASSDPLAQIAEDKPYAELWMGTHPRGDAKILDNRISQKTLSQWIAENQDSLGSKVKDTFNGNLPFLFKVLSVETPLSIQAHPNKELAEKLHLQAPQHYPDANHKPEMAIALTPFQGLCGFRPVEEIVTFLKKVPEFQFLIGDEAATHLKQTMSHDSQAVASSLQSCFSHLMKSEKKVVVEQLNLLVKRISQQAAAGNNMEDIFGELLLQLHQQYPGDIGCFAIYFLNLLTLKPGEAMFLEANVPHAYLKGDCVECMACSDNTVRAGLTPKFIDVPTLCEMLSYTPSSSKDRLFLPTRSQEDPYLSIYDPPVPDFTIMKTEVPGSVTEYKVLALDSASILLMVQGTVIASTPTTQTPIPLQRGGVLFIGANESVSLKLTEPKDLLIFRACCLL
Put plainly: PMI enzyme inhibitors, confirmation, biochemical, fluorescence intensity (AID 1535).

A further assay concerns CHO. Put plainly: cytotoxicity in TLR9-MyD88 CHO cells, dose response, cytotoxicity control for TLR9-MyD88 binding inhibitor project, cell-based, luminescence (AID 588339).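 Note: CHO cells stably coexpressing TLR9 and MyD88 fusions from primary screen; compound exposure lasted 48 hours before viability readout.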 To be noted: Cricetulus griseus. In kind it is functional, hamster.
Assay [2] addresses T2, Intestinal-type alkaline phosphatase (Homo sapiens, UniProt P09923). Kind of assay: human IAP activators, dose response, biochemical, luminescent, uHTS hits, set 2 (AID 488817).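 Note: potency of activators that raise enzyme activity.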 In kind it is functional.
Assay [3] in a line: microbe, parasite or virus in culture. The note with it: Mycobacterium tuberculosis. It is filed as functional.
Assay [4] addresses T3, Endoribonuclease toxin MazF (Escherichia coli K-12, UniProt P0AE70).
T3 sequence (P0AE70 whole entry): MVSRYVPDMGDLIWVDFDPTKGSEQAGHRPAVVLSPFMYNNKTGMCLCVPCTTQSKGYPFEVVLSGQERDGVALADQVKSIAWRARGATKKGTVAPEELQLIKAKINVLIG
Kind of assay: fluorescent RNA oligo signal without MazF, dose response, counter-screen for MazEF activator project, biochemical, fluorescence, single-stranded RNase substrate (AID 588502). It is filed as functional. In general terms: Counterscreens check selectivity or assay interference.

Assay [5] deals with Alkaline phosphatase, placental type (Homo sapiens, UniProt P05187). Put plainly: PLAP enzyme inhibitors, confirmation, biochemical, luminescence (AID 1512). It is filed as functional.
The target of assay [6] is T2, Intestinal-type alkaline phosphatase. Kind of assay: human intestinal alkaline phosphatase activators, dose response, biochemical, luminescence, uHTS hits (AID 463120). It is filed as functional.
Assay [7] concerns the target T1, Mannose-6-phosphate isomerase. Put plainly: Confirmation of compounds inhibiting phosphomannose isomerase (PMI) via a fluorescence intensity assay using a high concentration of mannose 6-phosphate. [Related pubchem assays (depositor defined):AID1209, AID1220, AID1545, AID1553, AID1620].
Assay [8] has as its target Intestinal-type alkaline phosphatase (Mus musculus, UniProt P24822). Put plainly: PubChem AID 488874. It is filed as functional.
Assay [9] has as its target T3, Endoribonuclease toxin MazF. Put plainly: MazF toxin RNase activators, dose response, biochemical, fluorescence, single-stranded RNA substrate, uHTS hits (AID 588481). It is filed as functional.
Assay [10] addresses Heat shock protein HSP 90-alpha (Homo sapiens, UniProt P07900). In kind it is functional, organism-based.
The target of assay [11] is G-protein coupled receptor 55 (Homo sapiens, UniProt Q9Y2T6). Kind of assay: SAR analysis of selective Agonists of GPR55 using an Image-Based Assay - Set 2. [Related pubchem assays (depositor defined):AID1961, AID1965]. In kind it is functional.
Assay [12] concerns the target T4, Cannabinoid receptor 1 (Homo sapiens, UniProt P21554). Kind of assay: SAR analysis of agonists of the Cannabinoid Receptor 1 using an Image-Based Assay - Set 3. [Related pubchem assays (depositor defined):AID1961, AID1965]. It is filed as functional.
Assay [13] deals with T5, Cannabinoid receptor 2 (Homo sapiens, UniProt P34972). Kind of assay: SAR analysis of antagonists of the Cannabinoid Receptor 2 using an Image-Based Assay - Set 2. [Related pubchem assays (depositor defined):AID1961, AID1965]. In kind it is functional.
Assay [14] deals with T6, G-protein coupled receptor 35 (Homo sapiens, UniProt Q9HC97). Put plainly: SAR analysis of Antagonists of the GPR35 Receptor using an Image-Based Assay - Set 4. [Related pubchem assays (depositor defined):[…]]. In kind it is functional.
For assay [15], the target named is T6, G-protein coupled receptor 35. Put plainly: SAR analysis of Agonists of the GPR35 Receptor using an Image-Based Assay - Set 3. [Related pubchem assays (depositor defined):AID1961, AID1965]. It is filed as functional.
The target in assay [16] is T5, Cannabinoid receptor 2. Put plainly: SAR analysis of agonists of the Cannabinoid Receptor 2 using an Image-Based Assay - Set 2. [Related pubchem assays (depositor defined):AID1961, AID1965]. In kind it is functional.
Assay [17] has as its target T4, Cannabinoid receptor 1. Kind of assay: SAR analysis of antagonists of the Cannabinoid Receptor 1 using an Image-Based Assay - Set 3. [Related pubchem assays (depositor defined):AID1961, AID1965]. In kind it is functional.
For assay [18], the target named is Kappa-type opioid receptor (Homo sapiens, UniProt P41145). Kind of assay: SAR analysis of small molecule agonists of the kappa opioid receptor via a luminescent beta-arrestin assay - Set 3. [Related pubchem assays (depositor defined):AID1777, AID1785, AID1786, AID1966, AID2133, AID2136, AID2284, AID2500]. In kind it is functional.
Assay [19] deals with T7, Voltage-gated N-type calcium channel alpha-1B subunit/Amyloid beta A4 precursor protein-binding family A member 1 (Homo sapiens, UniProt Q00975+Q02410). It is filed as protein assay.
In assay [20] the target is T7, Voltage-gated N-type calcium channel alpha-1B subunit/Amyloid beta A4 precursor protein-binding family A member 1. It is filed as protein assay. The source holds these as a separate data set.
In assay [21] the target is T8, SUMO-activating enzyme (Homo sapiens, UniProt Q9UBT2). Put plainly: SUMOylation inhibitor hit validation, confirmation, SUMOylation inhibitor project, biochemical, AlphaScreen (AID 2018). In kind it is functional.
For assay [22], the target named is T8, SUMO-activating enzyme. Kind of assay: inhibitors of in vitro SUMOylation cascade, primary screen, biochemical, HTRF, uHTS (AID 2006). It is filed as protein-complex assay. (Time-resolved FRET reads energy transfer from a long-lived donor to a nearby acceptor.)

Each structure is given as a SMILES string. Activity calls are given as the source filed them.

T8 sequence (Q9UBE0 whole entry): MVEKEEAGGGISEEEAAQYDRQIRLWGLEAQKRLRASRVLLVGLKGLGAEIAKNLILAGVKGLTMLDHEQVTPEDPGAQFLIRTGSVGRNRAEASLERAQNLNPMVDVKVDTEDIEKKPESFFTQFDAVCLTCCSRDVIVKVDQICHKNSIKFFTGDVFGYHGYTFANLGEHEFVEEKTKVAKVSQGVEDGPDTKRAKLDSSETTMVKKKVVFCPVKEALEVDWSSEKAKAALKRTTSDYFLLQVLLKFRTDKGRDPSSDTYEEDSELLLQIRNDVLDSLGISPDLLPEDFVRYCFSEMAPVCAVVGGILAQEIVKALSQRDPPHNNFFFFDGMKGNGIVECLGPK
T8 sequence (Q9UBT2 whole entry): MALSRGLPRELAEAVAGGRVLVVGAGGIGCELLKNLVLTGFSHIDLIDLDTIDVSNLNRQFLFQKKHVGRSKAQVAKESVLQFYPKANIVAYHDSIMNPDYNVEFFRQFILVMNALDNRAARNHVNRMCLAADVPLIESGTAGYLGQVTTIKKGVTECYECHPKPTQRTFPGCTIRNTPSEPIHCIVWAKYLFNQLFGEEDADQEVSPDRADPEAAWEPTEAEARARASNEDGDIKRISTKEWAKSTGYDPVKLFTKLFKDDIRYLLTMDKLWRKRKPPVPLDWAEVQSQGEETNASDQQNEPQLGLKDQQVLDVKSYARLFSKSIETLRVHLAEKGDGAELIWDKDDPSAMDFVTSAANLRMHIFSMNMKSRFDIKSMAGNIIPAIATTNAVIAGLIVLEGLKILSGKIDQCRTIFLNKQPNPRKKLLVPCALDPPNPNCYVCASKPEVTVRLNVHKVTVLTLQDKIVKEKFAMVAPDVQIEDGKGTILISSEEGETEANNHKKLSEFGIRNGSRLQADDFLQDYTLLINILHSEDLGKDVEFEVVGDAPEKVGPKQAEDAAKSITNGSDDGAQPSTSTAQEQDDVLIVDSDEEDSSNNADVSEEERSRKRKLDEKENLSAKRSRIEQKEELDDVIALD
T4 sequence (P21554 whole entry): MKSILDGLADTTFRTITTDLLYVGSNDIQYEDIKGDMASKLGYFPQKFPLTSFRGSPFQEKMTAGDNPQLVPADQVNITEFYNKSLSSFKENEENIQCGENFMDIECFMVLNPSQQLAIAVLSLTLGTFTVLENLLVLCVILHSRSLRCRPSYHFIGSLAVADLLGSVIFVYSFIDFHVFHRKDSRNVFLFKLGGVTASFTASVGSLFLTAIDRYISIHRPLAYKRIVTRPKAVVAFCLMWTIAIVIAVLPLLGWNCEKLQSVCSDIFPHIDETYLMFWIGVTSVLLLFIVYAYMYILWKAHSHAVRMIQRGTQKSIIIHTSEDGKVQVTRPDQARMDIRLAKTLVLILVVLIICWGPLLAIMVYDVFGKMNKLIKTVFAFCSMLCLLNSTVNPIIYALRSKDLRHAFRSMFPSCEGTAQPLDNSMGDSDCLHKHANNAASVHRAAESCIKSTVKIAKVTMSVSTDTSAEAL
T2 sequence (P09923 whole entry): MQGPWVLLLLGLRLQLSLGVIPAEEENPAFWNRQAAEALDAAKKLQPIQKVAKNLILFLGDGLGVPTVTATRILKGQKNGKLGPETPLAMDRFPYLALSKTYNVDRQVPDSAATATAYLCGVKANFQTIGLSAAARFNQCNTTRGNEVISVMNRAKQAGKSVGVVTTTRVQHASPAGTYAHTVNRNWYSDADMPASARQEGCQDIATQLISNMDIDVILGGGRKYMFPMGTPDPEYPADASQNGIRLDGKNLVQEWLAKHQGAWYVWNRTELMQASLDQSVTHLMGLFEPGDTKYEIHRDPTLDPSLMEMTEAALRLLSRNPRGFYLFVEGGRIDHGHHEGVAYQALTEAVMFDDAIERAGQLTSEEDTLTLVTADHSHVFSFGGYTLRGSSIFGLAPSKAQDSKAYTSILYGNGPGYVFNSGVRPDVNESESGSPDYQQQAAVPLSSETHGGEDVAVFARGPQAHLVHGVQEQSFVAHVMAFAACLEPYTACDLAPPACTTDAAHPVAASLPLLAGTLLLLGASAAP
Alkaline phosphatase, placental type, sequence (P05187 whole entry): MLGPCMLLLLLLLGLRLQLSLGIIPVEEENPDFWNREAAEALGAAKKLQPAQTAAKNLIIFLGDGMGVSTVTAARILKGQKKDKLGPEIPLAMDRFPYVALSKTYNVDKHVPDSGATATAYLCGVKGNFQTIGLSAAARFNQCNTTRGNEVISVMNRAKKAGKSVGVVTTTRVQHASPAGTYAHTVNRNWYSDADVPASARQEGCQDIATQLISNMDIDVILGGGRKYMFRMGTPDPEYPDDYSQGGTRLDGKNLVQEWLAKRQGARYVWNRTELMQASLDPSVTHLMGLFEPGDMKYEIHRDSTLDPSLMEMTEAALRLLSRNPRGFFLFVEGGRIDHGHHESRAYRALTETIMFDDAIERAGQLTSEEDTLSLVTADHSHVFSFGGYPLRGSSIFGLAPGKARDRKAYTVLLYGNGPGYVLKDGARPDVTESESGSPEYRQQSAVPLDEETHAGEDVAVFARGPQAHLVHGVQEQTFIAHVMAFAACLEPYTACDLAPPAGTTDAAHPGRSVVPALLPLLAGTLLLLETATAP
T6 sequence (Q9HC97 whole entry): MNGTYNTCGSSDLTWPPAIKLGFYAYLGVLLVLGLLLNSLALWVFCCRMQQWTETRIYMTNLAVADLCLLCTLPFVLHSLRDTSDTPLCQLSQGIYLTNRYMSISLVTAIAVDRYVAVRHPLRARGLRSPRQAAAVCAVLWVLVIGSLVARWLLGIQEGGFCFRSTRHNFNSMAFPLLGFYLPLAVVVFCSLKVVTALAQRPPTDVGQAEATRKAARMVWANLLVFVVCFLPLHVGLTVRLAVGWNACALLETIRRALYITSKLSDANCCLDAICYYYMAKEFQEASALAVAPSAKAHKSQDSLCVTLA
T5 sequence (P34972 whole entry): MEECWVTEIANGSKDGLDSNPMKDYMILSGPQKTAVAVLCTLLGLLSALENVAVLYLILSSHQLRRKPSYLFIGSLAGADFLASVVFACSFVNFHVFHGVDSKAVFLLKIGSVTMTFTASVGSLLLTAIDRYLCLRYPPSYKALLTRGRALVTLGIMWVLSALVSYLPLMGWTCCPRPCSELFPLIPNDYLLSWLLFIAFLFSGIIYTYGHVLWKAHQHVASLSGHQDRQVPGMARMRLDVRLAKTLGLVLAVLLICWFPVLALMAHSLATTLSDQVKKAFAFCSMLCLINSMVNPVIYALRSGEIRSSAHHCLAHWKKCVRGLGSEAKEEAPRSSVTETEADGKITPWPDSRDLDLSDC
G-protein coupled receptor 55, sequence (Q9Y2T6 whole entry): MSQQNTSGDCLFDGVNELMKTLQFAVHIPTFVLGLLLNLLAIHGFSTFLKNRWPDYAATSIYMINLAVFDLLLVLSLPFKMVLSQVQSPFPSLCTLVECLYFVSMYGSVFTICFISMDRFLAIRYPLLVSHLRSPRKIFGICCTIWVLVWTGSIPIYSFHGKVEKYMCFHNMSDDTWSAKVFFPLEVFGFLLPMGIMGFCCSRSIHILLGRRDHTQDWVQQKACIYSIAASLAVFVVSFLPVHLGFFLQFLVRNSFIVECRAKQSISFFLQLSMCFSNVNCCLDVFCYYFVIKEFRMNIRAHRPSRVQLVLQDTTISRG
Intestinal-type alkaline phosphatase (Mus musculus, UniProt P24822), sequence (P24822 whole entry): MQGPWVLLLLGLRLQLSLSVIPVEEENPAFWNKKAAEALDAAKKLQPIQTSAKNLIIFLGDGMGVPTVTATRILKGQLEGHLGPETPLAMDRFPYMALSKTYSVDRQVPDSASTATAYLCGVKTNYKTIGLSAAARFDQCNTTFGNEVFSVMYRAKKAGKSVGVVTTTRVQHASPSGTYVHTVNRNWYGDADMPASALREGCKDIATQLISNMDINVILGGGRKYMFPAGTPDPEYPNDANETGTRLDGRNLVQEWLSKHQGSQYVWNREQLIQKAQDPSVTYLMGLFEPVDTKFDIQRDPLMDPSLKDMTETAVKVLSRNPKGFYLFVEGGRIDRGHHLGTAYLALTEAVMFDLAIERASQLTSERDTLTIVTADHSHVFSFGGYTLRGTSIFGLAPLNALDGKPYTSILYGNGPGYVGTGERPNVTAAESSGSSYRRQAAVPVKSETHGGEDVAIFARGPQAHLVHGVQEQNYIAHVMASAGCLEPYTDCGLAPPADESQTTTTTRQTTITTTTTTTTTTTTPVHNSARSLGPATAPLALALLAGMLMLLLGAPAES
Kappa-type opioid receptor, sequence (P41145 whole entry): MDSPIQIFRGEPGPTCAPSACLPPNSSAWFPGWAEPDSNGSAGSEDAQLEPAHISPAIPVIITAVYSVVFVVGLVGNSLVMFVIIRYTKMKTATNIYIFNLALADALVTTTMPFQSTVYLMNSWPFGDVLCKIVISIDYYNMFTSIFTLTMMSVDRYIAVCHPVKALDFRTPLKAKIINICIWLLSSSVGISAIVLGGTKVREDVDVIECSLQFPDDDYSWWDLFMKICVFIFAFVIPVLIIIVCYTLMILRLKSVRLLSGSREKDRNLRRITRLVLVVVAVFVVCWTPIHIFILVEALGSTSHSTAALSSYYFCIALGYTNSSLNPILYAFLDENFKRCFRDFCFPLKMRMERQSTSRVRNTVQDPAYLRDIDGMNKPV

On to `O=C1Nc2ccc(Br)cc2C12NNc1ccccc1O2` (stereo not drawn), for which the IC50 (as a rule, the concentration at which inhibition is half-maximal) was > 100 µM (inactive) in [1]; 11.3 µM (inactive) in the assay on CHO; > 100 µM (inactive) in assay [5]; > 100 µM (inactive) in assay [7]; 8.09 µM (active) in assay [8]. In addition, the EC50 (in general, the midpoint of the concentration-response curve) was 0.257 µM (active) in assay [2], 73.1 µM (inactive) in assay [4], 10.1 µM (active) in assay [6] and > 99 µM (inactive) in assay [9]. Besides, the CC50 in assay [3] was 23.8 µM (active). For the same molecule, in assay [10], the AC50 (in general, the midpoint of the concentration-response curve, whichever way the signal moves) was 3.34 µM (active).
For the molecule `Cc1cccc(N2CCN(C(=O)c3cccc(S(=O)(=O)N4CCCCC4)c3)CC2)c1C`, the EC50 (in [11]; on Cannabinoid receptor 1 [12]; in [15]; on Cannabinoid receptor 2 [16]) was > 32 µM (inactive) throughout. In addition, the IC50 (at Cannabinoid receptor 2 [13]; in assay [14]; on Cannabinoid receptor 1 [17]) was > 32 µM (inactive) in each case.
For the molecule `CCCCN(Cc1cc2cc(Cl)ccc2[nH]c1=O)C(=O)c1cccs1`, the EC50 in [18] is > 20 µM (inactive).
Turning to `O=C(N/N=C/c1ccc([N+](=O)[O-])o1)c1cn2ccc3ccccc3c2n1`, the IC50 is > 56.8 µM (not active) in assay [19], > 50 µM (inactive) in assay [20], 35.1 µM (active) on SUMO-activating enzyme [21] and > 100 µM (inactive) at SUMO-activating enzyme [22].
